# Laboratory results reported in patent US5393740A, “Neurotensin Hexapeptides” (Tsumura & Co., priority 1991, dated 1995).
# *1 amine or outer side, *2 acyl side, *3 side chain or, on linkers, in order; H or OH if unused. Where a SMILES comes first, the peptide text is derived from it. [ ]: non-standard residue; d: D form. X2 = CCCCN([C@@H](CCCNC(=N)N)C(=O)[*:2])[*:1]; Leu(ol) = CC(C)C[C@H](N)CO
# Tests used:
# [1] = test system: ddY mice; assay: Acute toxicity test; format: in vivo, mouse; conditions: intravenous injection, 2,000 times (64 μmol/kg) the effective amount
# Method: An acute toxicity test of peptides Nos. 1, 31 and 32 of the present invention was performed by using, ddY mice. […] No toxic expression was therefore observed.
# [2] = target: thrombin (Homo sapiens, UniProt P00734); assay: Protease inhibition action (thrombin, synthetic coloring base S-2238); format: biochemical; conditions: thrombin final conc. 10 U/ml, preincubated at 37° C. for 5 minutes, S-2238 37° C. 15 minutes, 405 nm
# Method: Each of peptides Nos. 1, 31 to 34 was mixed at various volume with thrombin (final conc. 10 U/ml), and the resultant mixture was preincubated at 37° C. for 5 minutes. A synthetic coloring base (Test Team^R S-2238 available from Daiichi Kagaku Yakuhin) was added to the above preincubated mixture and was reacted at 37° C. for 15 minutes.
# 2% citric acid was added to the above mixture to stop the reaction. Hydrolysis was performed using residual thrombin, and free p-nitroaniline removed from the synthetic coloring base was subjected to colorimetric determination at a wavelength of 405 nm, thereby obtaining the inhibition capability with reference to 0.1M tris buffer. On the base of the inhibition capability thus obtained, a concentration of the peptides when each peptide inhibited the activity of thrombin with 50%, i.e. IC50 was calculated.
# [3] = test system: Wister rats; assay: Anti-allergic action (passive cutaneous anaphylaxis reaction); format: in vivo, rat; conditions: PCA reaction, 32 nmol g/kg i.v. 10 minutes before provocation, control 188.3 ± 9.71
# Method: In this experiment, 6-week, male Wister rats (each group consisted of 10 rats) were used, and the back of these rats were shaved.
# An anti-egg albumin rat serum was diluted with a saline to forty-fold of its volume, thereby obtaining an anti-egg albumin rat serum solution. 1 ml of the anti-egg albumin rat serum solution was intradermally injected to both side parts against the median line in the shaved portion, thereby sensitizing passively the rats. After 48 hours, 1 ml of a 0.5% Evans blue solution containing 10 mg of a egg-albumin was intravenously injected to the each rat, thereby provocating a passive cutaneous anaphylaxis (PCA) reaction.
# After 30 minutes, the rats were decapitated, thereby subjecting to hemorrhage to death. The skins were peeled from the rats, and a long diameter and a short diameter of a blue stained portions caused by the PCA reaction in each rat were measured, and area of the blue-stained portions were calculated on the base of the obtained data.
# In these operations, the of peptides Nos. 1, 31 and 32 were dissolved in a sodium acetate buffered solution containing 1% BSA and was intravenously injected to each rat at 10 minutes before the provocation of the PCA reaction. As a control, the sodium acetate buffer solution containing 1% BSA instead of the peptide solutions was injected according to same procedure as described above.
# [4] = test system: ICR mice; assay: Anti-shock action (endotoxin-induced lethality); format: in vivo, mouse; conditions: 32 nmol/kg × 4 intravenously, endotoxin (LPS E. coli 0127B8) 10 mg/kg i.v. after 10 minutes; male ICR mice; control 80
# Method: In this experiment, male ICR mice (each group consisted of 10 mice) each having a weight of 25 g to 35 g were used. Each of peptides Nos. 1, 31 and 32 was dissolved in a sodium acetate buffered solution (pH 6.0) added with 1% BSA or in a physiological saline.
# An endotoxin to induce a shock was obtained by dissolving Lipopolysaccharide [E. coli; 0127B8 (Difco)] in a physiological saline.
# Each of peptialdes Nos. 1, 31 and 32 was intravenously injected at a by dose of 5 ml/kg to each mouse, and the endotoxin with concentration of 10 mg/kg was intravenously injected at a dose of 5 ml/kg after 10 minutes. The lethal rates (%) of these mice within 24 hours were measured. As a control, 5 ml/kg of the sodium acetate buffered solution added with 1% BSA was injected instead of the hexapeptide of the present invention.
# [5] = test system: SD rats; assay: Wound healing action (traction tension of skin wound); format: in vivo, rat; conditions: skin wound stripe, eighth day; 32 nmol/kg i.v. once a day for 8 days; male SD rats; control 456.2 ± 21.6
# Description: The male SD rats (each group consisted of 10 rats) were anesthetized with ether and shaved in the back of the each rat, and the anesthetized portion was formed by a length of 30 mm along the median line by using a degreased, sterilized razor blade. The wound was immediately sutured at three equidistant positions, and the stitches were taken out after three days. The rats were subjected to hemorrhage to death in the eighth day, and the skins were peeled from the rats.
# A skin stripe having a size of 1 cm×4 cm was formed from a wounded portion of each rat. Both ends of this stripe were set in a wound curing measurement tensile test instrument (TK-251 available from Unicom), and a tensile force (traction tension: g/cm) required to cut the wound portion was measured.
# Each hexapeptide compound according to the present invention was dissolved in an acetic acid buffer solution added with 1% BSA and was intravenously injected to each rat for 8 days (once a day) from the date of wound formation. As a control, 1 ml/kg of the sodium acetat buffered solution added with 1% BSA instead of the hexapeptide solutions was injected according to same procedure as described above.
# [6] = test system: Hybrid grown-up dogs; assay: Anti-DIC action (platelet number after endotoxin); format: in vivo, dog
# Method: Hybrid grown-up dogs (each group consisted of six dogs) were used in this experiment. 30 mg/kg of pentobarbital were intravenously injected to anesthetize each dog. Intravenous injection of 32 nmol/kg of each of peptides Nos. 1, 31 and 32 was performed. After 30 minutes, 3 mg/kg of an endotoxin derived from Escherichia Coli were intravenously injected while the artificial respiration was performed with air.
# Samples of blood were collecting from each dog immediately before the injection of the peptides and 120 minutes after the injection of the endotoxin.
# As a control, a experiment was performed according to same procedure as described above except that the hexapeptides was not injected.
# The number of platelets is the number per 1 mm^3 (1 μl) of the blood in Table 7.
# [7] = test system: Wistar rats; assay: Anti-edematous action (freezing-induced vascular cerebral edema); format: in vivo, rat; conditions: left cerebral cortex, 32 nmol/kg i.v. 10 minutes before and 20 minutes after the freezing, male Wistar rats, control 81.4
# Method: In this experiment, 8-week male Wistar rats were used, and peptides Nos. 1, 31 and 32 dissolved in a saline added with 1% BSA were used.
# Iron column whose diameter was 5 mm cooled by dryice acetone was placed on the left epidural portion of each rat to cause a vascular cerebral edema. Freezing was performed to form an injured portion after an hour, and the brain of each rat was taken out. The brain was divided into right and left cerebral cortices, and weights of the left cerebral cortices were measured. The left cerebral cortices was dried at 105° C. for 24 hours, and weights of the dried left cerebral cortices were measured to obtain water contents (%). In this operations, the peptides Nos. 1, 31 and 32 were intravenously injected at the concentration shown in Table 6 to each rat 10 minutes before and 20 minutes after the freezing. As a control, 1 ml/kg of the saline added with 1% BSA instead of the peptides was injected into rat according to same procedures as described above.
# [8] = test system: Sprague-Dawley (SD) rats; assay: Vascular permeability acceleration suppression action (hot-water leg edema); format: in vivo, rat; conditions: suppression of rate of increase in leg volume vs control; 1 ml/kg into femoral vein 10 minutes before dipping leg in 58° C. hot water for one minute; male SD rats
# Method: After 6-week male Sprague-Dawley (SD) rats (each group consisted of 10 rats) were fed for a week, they were used in this experiment.
# The concentrations of samples of the hexapeptides (peptide Nos. 1 to 30) were dissolved by an acetic acid buffer solution added with a 1% bovine serum albumin (BSA).
# An aliqrot of 1 ml/kg of each of the peptides Nos. 1 to 30 was injected into the femoral vein of the right leg of each rat anesthetized with 50 mg/kg of Nembutal Sodium (available from Dainippon Pharmaceutical Co., Ltd.). After 10 minutes, the nontreated left leg of the rat was dipped in 58° C. hot water for one minute to form an edema. Each rat was left at room temperature for 29 minutes, and the volumes of both legs of each rat were measured. As a control, the experiment following the same procedure as describe above was performed except that 1 ml/kg of a sodium acetate buffered solution containing 1% BSA instead of the hexapeptide of the present invention was injected in rats.
# A rate (%) of increase in leg volume was calculated from the result of the above measurement by equation (1) below: [formula]
# The rates were compared with that of the control.
# - X: rate of increase in leg volume (%) of the present invention.
# Xo: rate of increase in leg volume (%) of the control
Molecule,acute toxicity (death) [1],IC50 [2] [nM],also measured
"CC[C@H](C)[C@H](NC(=O)[C@H](Cc1ccc(O)cc1)NC(=O)[C@@H]1CCCN1C(=O)[C@H](CCCNC(=N)N)NC(=O)CCCCNC(=N)N)C(=O)N[C@@H](CC(C)C)C(=O)O [Peptide No. 1, Desamino-Arg--Arg--Pro--Tyr--Ile--Leu--OH]",No mice were dead,2500,
"CC[C@H](C)[C@H](NC(=O)[C@H](Cc1ccc(O)cc1)NC(=O)[C@@H]1CCCN1C(=O)[C@H](CCCNC(=N)N)NC(=O)[C@H](CCCNC(=N)N)NC(C)=O)C(=O)N[C@H](CO)CC(C)C [Peptide No. 31, N-acetyl--Arg--Arg--Pro--Tyr--Ile-Leucinol]",No mice were dead,2300,
"CC[C@H](C)[C@H](NC(=O)[C@H](Cc1ccc(O)cc1)NC(=O)[C@@H]1CCCN1C(=O)[C@H](CCCNC(=N)N)NC(=O)[C@H](CCCNC(=N)N)NC(C)=O)C(=O)N[C@@H](CC(C)C)C(N)=O [Peptide No. 32, N-acetyl--Arg--Arg--Pro--Tyr--Ile--Leu--NH2]",No mice were dead,2200,"Area of blue-stained portion (mm^2) [3]: 112.8 ± 4.83 mm^2; Lethal rate within 24 hours (%) [4]: 20%; Traction Tension [5]: 547.0 ± 32.3 g/cm; Average Number of Platelets 120 Minutes after Venous Injection of Endotoxin ([6]; 32 nmol/kg i.v. 30 minutes before 3 mg/kg E. coli endotoxin i.v., control 43 × 10^4): 58 × 10^4 per 1 mm^3 (1 μl) of the blood; Average Number of Platelets Immediately before Injection Endotoxin ([6]; 32 nmol/kg i.v., baseline sample, control 72 × 10^4): 71 × 10^4 per 1 mm^3 (1 μl) of the blood; Water Content (%) [7]: 80.6%"
"CCCCN[C@@H](CCCNC(=N)N)C(=O)N[C@@H](CCCNC(=N)N)C(=O)N1CCC[C@H]1C(=O)N[C@@H](Cc1ccc(O)cc1)C(=O)N[C@H](C(=O)N[C@H](CO)CC(C)C)[C@@H](C)CC [Peptide No. 33, N-buthyl--Arg--Arg--Pro--Tyr--Ile--Leucinol] (H-[X2]RPYI[Leu(ol)])",,2300,
Desamino-Arg-D-Lys--Pro--Trp--Ile-Leucinol [Peptide No. 23],,,Suppression Rate (%) [8]: 20.8%
